Among the data in patent US10442796B2, “2,3,5-substituted thiophene compound as protein kinase inhibitor” (KOREA INSTITUTE OF SCIENCE AND TECHNOLOGY, priority 2016, dated 2019) are GI50 and IC50 values, retold here.

Substitutions are numbered along the chain they refer to. Counter-ions that a name gives are not always drawn.

Test in all cases: Growth inhibitory activity against Ba/F3 cell line
Common to all, as to type: cell-based

For test [1], the target named is T1, FLT3-ITD-F691L-D835Y Ba/F3 cells (Homo sapiens, UniProt P36888, F691L/D835Y, cells depend on it, form not given).
T1 sequence (P36888 1-993 F691L/D835Y): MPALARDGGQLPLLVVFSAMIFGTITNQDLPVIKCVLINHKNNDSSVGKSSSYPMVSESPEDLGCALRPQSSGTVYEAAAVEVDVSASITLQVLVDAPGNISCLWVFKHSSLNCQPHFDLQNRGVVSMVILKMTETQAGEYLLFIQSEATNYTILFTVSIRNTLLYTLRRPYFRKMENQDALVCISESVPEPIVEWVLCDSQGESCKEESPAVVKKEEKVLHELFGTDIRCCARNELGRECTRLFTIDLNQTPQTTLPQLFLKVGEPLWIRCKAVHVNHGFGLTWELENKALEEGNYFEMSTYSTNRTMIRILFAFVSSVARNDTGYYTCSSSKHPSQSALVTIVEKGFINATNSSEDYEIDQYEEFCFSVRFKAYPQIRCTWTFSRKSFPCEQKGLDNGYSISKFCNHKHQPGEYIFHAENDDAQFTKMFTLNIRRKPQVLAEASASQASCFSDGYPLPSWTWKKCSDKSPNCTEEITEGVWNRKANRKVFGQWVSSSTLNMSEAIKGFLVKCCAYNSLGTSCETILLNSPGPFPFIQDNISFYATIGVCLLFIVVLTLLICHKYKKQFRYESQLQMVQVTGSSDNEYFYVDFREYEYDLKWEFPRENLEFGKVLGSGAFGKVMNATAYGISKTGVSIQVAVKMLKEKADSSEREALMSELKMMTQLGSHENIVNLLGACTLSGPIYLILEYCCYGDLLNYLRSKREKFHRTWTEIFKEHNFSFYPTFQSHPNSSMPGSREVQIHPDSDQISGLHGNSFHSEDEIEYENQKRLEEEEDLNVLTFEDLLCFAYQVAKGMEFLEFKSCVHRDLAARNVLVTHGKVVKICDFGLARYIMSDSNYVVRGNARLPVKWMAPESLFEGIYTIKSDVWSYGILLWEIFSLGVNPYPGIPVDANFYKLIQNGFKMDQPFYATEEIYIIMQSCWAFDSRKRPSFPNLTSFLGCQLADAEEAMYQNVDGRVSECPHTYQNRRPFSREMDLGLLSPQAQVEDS
The settings on record: Ba/F3 expressing FLT3-ITD-F691L-D835Y; 72 hours; cell titer glo; read-out: IC50 (uM) FLT3-ITD-F691L-D835Y. In a few lines: (§1)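 Ba/F3 cells carrying FLT3 mutants grown in RPMI with 10% FBS, exposed 72 h to ten 3-fold dilutions of compound starting from 1 mM DMSO stock. Viability read by CellTiter-Glo luminescence; GI50 fitted from signal versus final concentration.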
In general terms: In ATP-based viability assays light output follows the ATP content of the culture.

Test [2] addresses T2, FLT3-ITD-F691L Ba/F3 cells (Homo sapiens, UniProt P36888, F691L, cells depend on it, form not given).
T2 sequence (P36888 1-993 F691L): T1 sequence (P36888 1-993 F691L/D835Y) with Y835D
The settings on record: Ba/F3 expressing FLT3-ITD-F691L; 72 hours; cell titer glo; read-out: IC50 (uM) FLT3-ITD-F691L. In a few lines:
as §1

In another test the test system is Parental Ba/F3 cells. The settings on record: BaF3; Parental Ba/F3 with mouse IL-3 1 ng/mL; 72 hours; cell titer glo. As to the method: A Ba/F3 cell line expressing an FLT3 mutation gene was cultured in a culture solution including 90% RPMI, 10% FBS, and an antibiotic (Welgene). 100 uL of the Ba/F3 cell line was put into each of 5,000 wells of a TC-treated 96 well plate (SPL), and then 1 uL of a test compound diluted in dimethylsulfoxide (diluted for each 3 paint from a concentration of 1 mM, total 10 concentrations) was each injected thereinto. Thereafter, the resulting cell lines were incubated in a cell culture incubator for 72 hours. 50 uL of a cell titer glo (Promega) solution was added thereto, the resulting mixture was stored at room temperature for 10 minutes, and then the light emission intensity was measured by using a reader (Envision, PerkinElmer). The light emission intensity was shown as a graph for each final concentration of the test compound, and the GI50 value was obtained by using a Prism 5.0 (GraphPad) software.
A parental Ba/F3 cell line having no FLT3 mutation gene was cultured by using a culture solution supplemented with mouse IL-3 (R&D Systems), such that a final concentration became 1 ng/mL in the culture solution including 90% RPMI, 10% FBS, and an antibiotic (Welgene). The activity was measured by a method which is the same as described above.

Broadly, the IC50 is the concentration at which inhibition is half-maximal. For the molecule `CCn1cc(C#Cc2cc(NC(N)=O)c(C(=O)N[C@H]3CCCCNC3)s2)cn1` [Example 43, (S)—N-(azepan-3-yl)-5-((l-ethyl-1H-pyrazol-4-yl)ethynyl)-3-ureidothiophene-2-carboxamide trifluoroacetate], the GI50 in test [1] turned out to be 0.006 µM; in test [2], 0.2 µM. For the same molecule, in the test with Parental Ba/F3 cells, the IC50 is 4.1 µM.

On to `Cn1cc(C#Cc2cc(NC(N)=O)c(C(=O)N[C@H]3CCCNC3)s2)cn1` [Example 15, (S)-5-((l-methyl-1H-pyrazol-4-yl)ethynyl)-N-(piperidin-3-yl)-3-ureidothiophene-2-carboxamide trifluoroacetate], for which the results for the GI50 in test [1] and in test [2] were 0.009 µM and 0.216 µM, respectively. The half-inhibitory concentration (IC50) in the test on Parental Ba/F3 cells stood at 34.6 µM.

Regarding `N#Cc1cccc(C#Cc2cc(NC(N)=O)c(C(=O)N[C@H]3CCCNC3)s2)c1` [Example 6, (S)-5-((3-cyanophenyl)ethynyl)-N-(piperidin-3-yl)-3-ureidothiophene-2-carboxamide], the GI50 is less than 0.004 µM in test [1] and 0.055 µM in test [2]. For the same molecule, the half-inhibitory concentration (IC50) in the test on Parental Ba/F3 cells was found to be 1.59 µM.

Turning to `N#Cc1ccc(C#Cc2cc(NC(N)=O)c(C(=O)N[C@H]3CCCNC3)s2)cc1` [Example 11, (S)-5-((4-cyanophenyl)ethynyl)-N-(piperidin-3-yl)-3-ureidothiophene-2-carboxamide], the values for the GI50 in test [1] and in test [2] were less than 0.001 µM and 0.004 µM, respectively. The half-maximal inhibitory concentration (IC50) in the test with Parental Ba/F3 cells stood at 0.143 µM.

For `CC(=O)N1CCC(n2cc(C#Cc3cc(NC(N)=O)c(C(=O)N[C@H]4CCCCNC4)s3)cn2)CC1` [Example 49], the figures for the GI50 in test [1] and in test [2] were 0.031 µM and 0.616 µM, respectively. In addition, the IC50 with Parental Ba/F3 cells is more than 5 µM.

Regarding `NC(=O)Nc1cc(C#Cc2ccnc(F)c2)sc1C(=O)N[C@H]1CCCNC1` [Example 21, (S)-5-((2-fluoropyridin-4-yl)ethynyl)-N-(piperidin-3-yl)-3-ureidothiophene-2-carboxamide], the GI50 in test [1] was less than 0.004 µM; in test [2], 0.087 µM. The 50% inhibitory concentration (IC50) in the test on Parental Ba/F3 cells came out at 2.78 µM.

In the case of `NC(=O)Nc1cc(C#Cc2cccc([N+](=O)[O-])c2)sc1C(=O)N[C@H]1CCCNC1` [Example 5, (S)-5-((3-nitrophenyl)ethynyl)-N-(piperidin-3-yl)-3-ureidothiophene-2-carboxamide], the GI50 was less than 0.004 µM in test [1] and 0.062 µM in test [2]. For the same molecule, the 50% inhibitory concentration (IC50) in the test with Parental Ba/F3 cells amounted to 2.06 µM.

For the molecule `NC(=O)Nc1cc(C#Cc2ccncc2)sc1C(=O)N[C@H]1CCCNC1` [Example 4, (S)—N-(piperidin-3-yl)-5-(pyridin-4-ylethynyl)-3-ureidothiophene-2-carboxamide], the GI50 came out at 0.01 µM in test [1] and 1.1 µM in test [2]. Further, the IC50 in the test with Parental Ba/F3 cells worked out at 24 µM.

With `NC(=O)Nc1cc(CCc2cccc(F)c2)sc1C(=O)N[C@H]1CCCCNC1` [Example 54, (S)—N-(azepan-3-yl)-5-(3-fluorophenethyl)-3-ureidothiophene-2-carboxamide], the GI50 was 1.02 µM in test [1] and 7.47 µM in test [2]. Besides, the IC50 in the test on Parental Ba/F3 cells was more than 33 µM.

`NC(=O)Nc1cc(C#Cc2ccccc2)sc1C(=O)N[C@H]1CCCNC1` [Example 2, (S)-5-(phenylethynyl)-N-(piperidin-3-yl)-3-ureidothiophene-2-carboxamide]: the GI50 in test [1] is less than 0.001 µM; in test [2] it was 0.004 µM. In addition, in the test with Parental Ba/F3 cells, the 50% inhibitory concentration (IC50) was 0.159 µM.

For `NC(=O)Nc1cc(C#Cc2ccc([N+](=O)[O-])cc2)sc1C(=O)N[C@H]1CCCNC1` [Example 7, (S)-5-((4-nitrophenyl)ethynyl)-N-(piperidin-3-yl)-3-ureidothiophene-2-carboxamide], the GI50 in test [1] was less than 0.004 µM; in test [2], 0.089 µM. In addition, in the test with Parental Ba/F3 cells, the half-inhibitory concentration (IC50) stood at 1.86 µM.

Regarding `Cn1cc(CCc2cc(NC(N)=O)c(C(=O)N[C@H]3CCCCNC3)s2)cn1` [Example 52, (S)—N-(azepan-3-yl)-5-(2-(1-methyl-1H-pyrazol-4-yl)ethyl)-3-ureidothiophene-2-carboxamide trifluoroacetate], the GI50 in test [1] was more than 4 µM; in test [2], more than 100 µM. The IC50 in the test on Parental Ba/F3 cells is more than 100 µM.

Take `NC(=O)Nc1cc(C#Cc2ccc(C(F)(F)F)nc2)sc1C(=O)N[C@H]1CCCNC1` [Example 17, (S)—N-(piperidin-3-yl)-5-((6-(trifluoromethyl)pyridin-3-yl)ethynyl)-3-ureidothiophene-2-carboxamide]: the values for the GI50 in test [1] and in test [2] were less than 0.004 µM and 0.069 µM, respectively. In addition, the IC50 with Parental Ba/F3 cells turned out to be 2.37 µM.

Take `NC(=O)Nc1cc(C#Cc2ccccn2)sc1C(=O)N[C@H]1CCCNC1` [Example 10, (S)—N-(piperidin-3-yl)-5-(pyridin-2-ylethynyl)-3-ureidothiophene-2-carboxamide]: the GI50 in test [1] was found to be 0.004 µM; in test [2], 0.066 µM. Also, the half-maximal inhibitory concentration (IC50) with Parental Ba/F3 cells is 4.62 µM.

Take `NC(=O)Nc1cc(C#Cc2cccc(F)c2)sc1C(=O)N[C@H]1CCCNC1` [Example 22, (S)-5-((3-fluorophenyl)ethynyl)-N-(piperidin-3-yl)-3-ureidothiophene-2-carboxamide]: the GI50 in test [1] is less than 0.001 µM; in test [2] it was 0.032 µM. Further, in the test on Parental Ba/F3 cells, the IC50 worked out at 3.65 µM.

For `NC(=O)Nc1cc(C#Cc2n[nH]c3ccccc23)sc1C(=O)N[C@H]1CCCNC1` [Example 12, (S)-5-((1H-indazol-3-yl)ethynyl)-N-(piperidin-3-yl)-3-ureidothiophene-2-carboxamide], the GI50 in test [1] is 0.027 µM; in test [2], 0.487 µM. Also, in the test on Parental Ba/F3 cells, the half-maximal inhibitory concentration (IC50) is more than 10 µM.

With `NC(=O)Nc1cc(C#Cc2ccc(F)nc2)sc1C(=O)N[C@H]1CCCNC1` [Example 13, (S)-5-((6-fluoropyridin-3-yl)ethynyl)-N-(piperidin-3-yl)-3-ureidothiophene-2-carboxamide], the GI50 in test [1] turned out to be 0.004 µM; in test [2], 0.022 µM. For the same molecule, the IC50 with Parental Ba/F3 cells was determined as 2.22 µM.
